Reference: US10723727B2, “Tubulysin analogs and methods for their preparation” (priority 2016, dated 2020)

Assays:
[1] = target: T1, tubulin/RB3-stathmin-like-domain (RB3-SLD-tdm) complex (Sus scrofa, UniProt P02550+P02554); assay: Tubulin Peptide-Binding Site Competition Assay (fluorescence polarization); design: species or system Porcine; details: FP competition with BODIPY-labeled vinca peptide probe; read after five hours at 22° C.; read-out: Tubulin Peptide-Binding Site Competition Assay IC50
T1 construct: purchased Cytoskeleton, Inc. T240; host or cells: RB3-SLD was made in house in E. coli
Method in brief: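 The BODIPY vinca-peptide probe was premixed with test compound and then added to porcine tubulin/RB3-SLD, at final concentrations of 3 nM probe, 6 nM tubulin and 100 nM RB3-SLD. The buffer was PIPES pH 7.0 with Tween 20, MgCl2 and EGTA, and 11-point dilutions were run in duplicate. IC50 was fitted from the fluorescence polarization decrease and converted to Ki.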

[2] = system: N87 (gastric cancer) cells; assay: In vitro cell assay (MTS cell viability), N87; assay type: cell-based; details: 96 h, free compounds; 96 hours after treatment
Method in brief: (§1)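 Cells seeded 24 h before treatment with antibody-drug conjugates or free compounds, 3-fold serial dilutions at 10 concentrations in duplicate. Viability read by MTS assay 96 h after treatment as % of untreated control; IC50 from four-parameter logistic fit.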

HT-29 cells = assay: In vitro cell assay (MTS cell viability), HT-29 (target non-expressing); assay type: cell-based; details: Homo sapiens, HT-29, 96 h, free compounds; 96 hours after treatment; read-out: HT29 IC50
Method in brief: as §1

[3] = system: MDA-MB-361-DYT2 (breast cancer) cells; assay: In vitro cell assay (MTS cell viability), MDA-MB-361-DYT2; assay type: cell-based; details: 96 h, free compounds; 96 hours after treatment
Method in brief: as §1

## CC[C@H](C)[C@H](NC(=O)[C@@]1(C)CCCN1C)C(=O)N(C)[C@H](C[C@@H](OC(C)=O)c1nc(C(=O)N[C@H](COCc2ccccc2)Cc2ccccc2)cs1)C(C)C [#B61, 1,2-dimethyl-D-prolyl-N-[(1R,3R)-1-(acetyloxy)-1-(4-{[(2S)-1-(benzyloxy)-3-phenylpropan-2-yl]carbamoyl}-1,3-thiazol-2-yl)-4-methylpentan-3-yl]-N-methyl-L-isoleucinamide]
[1]
  IC50: 19.1 nM
[2]
  IC50: 38.5 nM
HT-29 cells
  IC50: 14.7 nM
[3]
  IC50: 23.4 nM
